Measurements reported in US10065927B2, “α-ketoacylic isoniazid compounds, process for producing said compounds, use of the compounds in the treatment of tuberculosis” (priority 2015, dated 2018).
In brackets after ≈: the same amount, converted by molar mass.

System: M. tuberculosis isoniazid resistant strain
Test: microbe, parasite or virus in culture
Type: cell-based
Conditions: Mycobacterium tuberculosis

| Structure (SMILES) | MIC |
| --- | --- |
| CC(=O)Nc1ccccc1C(=O)C(=O)NNC(=O)c1ccncc1 [Compound 2, N-(2-(2-(2-Isonicotinoylhydrazine)-2-Oxoacetyl)Phenyl) Acetamide] | 19.2 µM (≈ 6.26 µg/mL) |
| NNC(=O)c1ccncc1 [Isoniazid] | > 73 µM |
